Data as given in patent US20030108484A1, “Individualization of therapy with antineoplastic agents” (McGill University, priority 2001, published 2003).
Read-outs that look alike come from different tables or passages of the source. Marks after values point to notes of the source that are not given here.

Assays:
1X-Ab = experiment: Competitive antigen ELISA, cross-reactivity of 1X-Ab; format: binding, rabbit; conditions: for % Cross-Reaction 1X-Ab: competitive antigen ELISA, 0 = absence of inhibition or inhibition no higher than 40% at highest concentration tested (5×10^−3 M)
Experimental: (§1) Buffers and water without additives are filtered through millipore filters and kept for 1 week. BSA, antibodies, Tween™ 20 and horse radish peroxidase conjugates are added to these buffers and water just prior to use. Urine samples are usually collected 4 hours after drinking a cup of coffee (instant or brewed with approximately 100 mg of caffeine per cup) and stored at −80° C. The urine samples are diluted 10 times with sodium phosphate buffer (620 mosm, pH 7.50) and are subsequently diluted with water to give concentrations of AAMU and 1X no higher than 3×10^−6 M in the ELISA. All the pipettings are done with an eight-channel pipette, except those of the antibody and sample solutions. Starting with the last well, 100 μL of a carbonate buffer (100 mM, pH 9.6) containing 2.5 μg mL^−1 antibodies are added to each well. After 90 min. at room temperature, the wells are washed three times with […] of TPB: isotonic sodium phosphate buffer (310 mosm, pH 7.50) containing 0.05% Tween™ 20.
(§2) After the initial wash, unoccupied sites are blocked by incubation for 90 min. at room temperature with 100 μL TBP containing 3% BSA. The wells are washed four times with 100 μL TPB. […] The microplate is gently shaken with an orbital shaker at room temperature for 3-4 hours. The wells are washed three times with 100 μL TPB containing 1% BSA and three times with water containing 0.05% Tween™ 20. To the washed plate is added 150 μL of a substrate buffer composed of citric acid (25 mM) and sodium phosphate dibasic buffer (50 mM, pH 5.0) containing 0.06% hydrogen peroxide and 0.04% o-phenylenediamine hydrochloride.
(§3) Buffers and water without additives were filtered through millipore filters and kept for 1 week. BSA, antibodies, Tween™ 20 and horse radish peroxidase conjugates were added to these buffers and water just prior to use. Urine samples were usually collected 4 hours after drinking a cup of coffee (instant or brewed with approximately 100 mg of caffeine per cup) and stored at −80° C. They were diluted 10 times with sodium phosphate buffer (620 mosm, pH 7.50) and were subsequently diluted with water to give concentrations of AAMU and 1X no higher than 3×10^−6 M in the ELISA. All the pipettings were done with an eight-channel pipette, except those of the antibody and sample solutions. Starting with the last well, 100 μL of a carbonate buffer (100 mM, pH 9.6) containing 2.5 μg mL^−1 antibodies was pipetted. After 90 min. at room temperature, the wells were washed three times with 100 μL of TPB: isotonic sodium phosphate buffer (310 mosm, pH 7.50) containing 0.05% TweenTm 20.
(§4) After the initial wash, unoccupied sites were blocked by incubation for 90 min. at room temperature with […] TBP containing 3% BSA. The wells were washed four times with 100 μL TPB. […] The microplate was gently shaken with an orbital shaker at room temperature for 3-4 hours. The wells were washed three times with 100 μL with TPB containing 1% BSA and three times with water containing 0.05% Tween™ 20. To the washed plate was added 150 μL of a substrate buffer composed of citric acid (25 mM) and sodium phosphate dibasic buffer (50 mM, pH 5.0) containing 0.06% hydrogen peroxide and 0.04% o-phenylenediamine hydrochloride. After 20 min. at room temperature with shaking, the reaction was stopped with 50 μL of 2.5 N HCl.
(§5) The cross reactivities of AAMU-Ab and 1X-Ab were tested using a wide variety of caffeine metabolites and structural analogs (Table 2 below).

AAMU-Ab = experiment: Competitive antigen ELISA, cross-reactivity of AAMU-Ab; format: binding, rabbit; conditions: for % Cross-Reaction AAMU-Ab: competitive antigen ELISA, 0 = absence of inhibition or inhibition no higher than 40% at highest concentration tested (5×10^−3 M)
Experimental: as §1, §2, §3, §4, §5

[1] = p<0.05, cited from earlier work
breast cancer = conditions: first-line chemotherapy; cited from earlier work
[2] = cited from earlier work
[3] = individuals receiving 550 mg/m^2; cited from earlier work
[4] = test system: estrogen receptor-positive breast cancer and bone metastases; conditions: cited from earlier work

| Structure (SMILES) | % Cross-Reaction 1X-Ab (1X-Ab) [%] | % Cross-Reaction AAMU-Ab (AAMU-Ab) | also measured |
| --- | --- | --- | --- |
| Cn1c(=O)c2c(ncn2C)n(C)c1=O [1,3,7-Trimethyl Xanthine (Caffeine), 1,3,7-Trimethyl Xanthine] | 0 | 0% |  |
| Cn1c(=O)c2[nH]cnc2n(C)c1=O [1,3-Dimethyl Xanthine (Theophylline), 1,3-Dimethyl Xanthine] | 0.2 | 0% |  |
| Cn1c(=O)[nH]c2ncn(C)c2c1=O [1,7-Dimethyl Xanthine (Paraxanthine), 1,7-Dimethyl Xanthine] | 0.5 | 0% |  |
| Cn1c(=O)[nH]c2[nH]c(=O)n(C)c2c1=O [1,7-Dimethyluric acid] | 0 | 0% |  |
| Cn1c(=O)[nH]c2nc[nH]c2c1=O [1-Methyl Xanthine (1X), 1-Methyl Xanthine] | 100 | 0% | IC50 (1X-Ab; read-out: concentration required for 50% inhibition in the competitive antigen ELISA, 1X-Ab): 10 µM |
| Cn1c(=O)[nH]c2[nH]c(=O)[nH]c2c1=O [1-Methyluric acid] | 11 | 0% |  |
| Cn1cnc2c1c(=O)[nH]c(=O)n2C [3,7-Dimethyl Xanthine (Theobromine), 3,7-Dimethyl Xanthine] | 0 | 0% |  |
| Cn1c(=O)[nH]c(=O)c2[nH]cnc21 [3-Methyl Xanthine] | 0 | 0% |  |
| CC(=O)Nc1c(N)n(C)c(=O)n(C)c1=O [5-Acetamino-6-amino-1,3-dimethyluracil] | 0 | 0% |  |
| CC(=O)Nc1c(N)n(C)c(=O)[nH]c1=O [5-Acetamino-6-amino-1-methyluracil] | 0 | 100% | IC50 (AAMU-Ab; read-out: concentration required for 50% inhibition in the competitive antigen ELISA, AAMU-Ab): 1.5 µM |
| CC(=O)Nc1c(N)[nH]c(=O)[nH]c1=O [5-Acetamino-6-amino-uracil] | 0 | 0.6% |  |
| Cn1cnc2[nH]c(=O)[nH]c(=O)c21 [7-Methyl Xanthine] | 0 | 0% |  |
| Cc1nc2[nH]c(=O)[nH]c(=O)c2[nH]1 [8-Methyl Xanthine] | 0 | 0% |  |
| COc1ccc2c(c1)[C@]13CCCC[C@@H]1[C@H](C2)N(C)CC3 [Dextromethorphan] |  |  | mean performance +/-SE ([1]; extensive metabolizers (EMs)): 95+/−0.5%; mean performance +/-SE ([1]; poor metabolizers (PMs)): 86+/−6% |
| CC(=O)O[C@@]12CO[C@@H]1C[C@H](O)[C@@]1(C)C(=O)[C@H](O)C3=C(C)[C@@H](OC(=O)[C@H](O)[C@@H](NC(=O)OC(C)(C)C)c4ccccc4)C[C@@](O)([C@@H](OC(=O)c4ccccc4)[C@H]21)C3(C)C [Docetaxel] |  |  | front-line response rate in breast cancer (breast cancer): up to 73% |
| Nc1nc2nc[nH]c2c(=O)[nH]1 [Guanine] | 0 | 0% |  |
| O=c1[nH]cnc2nc[nH]c12 [Hypoxanthine] | 0 | 0% |  |
| O=c1cc[nH]c(=O)[nH]1 [Uracil] | 0 | 0% |  |
| O=c1[nH]c(=O)c2[nH]c(=O)[nH]c2[nH]1 [Uric acid] | 0 | 0% |  |
| O=c1[nH]c(=O)c2[nH]cnc2[nH]1 [Xanthine] | 0 | 0^a % |  |
| Nc1ccc(S(=O)(=O)c2ccc(N)cc2)cc1 [dapsone] |  |  | adverse reactions ([2]; fast acetylators): 17%; adverse reactions ([2]; slow acetylators): 46% |
| COc1cccc2c1C(=O)c1c(O)c3c(c(O)c1C2=O)C[C@@](O)(C(=O)CO)C[C@@H]3O[C@H]1C[C@H](N)[C@H](O)[C@H](C)O1 [doxorubicin] |  |  | front-line response rate in breast cancer (breast cancer): 53%; incidence of cardiomyopathy (congestive heart failure and dysrhythmias) [3]: approximately 2% |
| CC/C(=C(\c1ccccc1)c1ccc(OCCN(C)C)cc1)c1ccccc1 [tamoxifen] |  |  | occurrence of hormone flare (increasing bone pain, erythema, hypercalcemia) ([4]; after 7-14 days of treatment, women with estrogen receptor-positive breast cancer and bone metastases): approximately 5%; individuals with hormone flare who respond to tamoxifen ([4]; individuals with hormone flare): 75% |
